Consider 6 molecules from ChEMBL document CHEMBL3861954, “A novel bis-furan scaffold for transthyretin stabilization and amyloid inhibition” (Eur J Med Chem, 2016).

Data set [1] is described as follows: Cytotoxicity against human HepG2 cells assessed as decrease in cell viability after 72 hrs by resazurin reduction assay. The format is toxicity, cell-based. Conditions: read-out: ID50. (In general: Alamar Blue is a resazurin reagent that responds to reducing activity.)
The target of data set [2] is T1, Transthyretin (Homo sapiens, UniProt P02766). The data set is described as follows: Binding affinity to recombinant human wild type TTR expressed in Escherichia coli BL21 (DE3) assessed as dissociation constants for first binding site of TTR by isothermal titration calorimetric method.
Data set [3] has as its target T1, Transthyretin. The experiment in a line: Binding affinity to recombinant human wild type TTR expressed in Escherichia coli BL21 (DE3) assessed as dissociation constants for second binding site of TTR by isothermal titration calorimetric method. For orientation: Isothermal titration calorimetry measures the heat released or taken up as one component is titrated into another.

For data set [4], the target named is T1, Transthyretin. The experiment in a line: Stabilization of recombinant human wild type TTR expressed in Escherichia coli BL21 (DE3) assessed as inhibition of amyloid beta formation by measuring turbidity preincubated for 30 mins followed by lowering pH from 7.2 to 4.4 measured after 72 hrs by microplate spectrophotometric method.
For data set [5], the target named is T1, Transthyretin. The experiment in a line: Displacement of [125I]-T4 from wild type TTR in human plasma after 1 hr by PAGE analysis. The class given is cell-free. (Loss of bound radioactivity is the signal in a displacement assay; it reports binding, not function.)
For data set [6], the target named is T1, Transthyretin. The experiment in a line: Stabilization of wild type TTR tetramer in human plasma assessed as tetramer to total protein ratio preincubated overnight at 4 degC followed by further incubation at room temperature for 1 hr in presence of 4M urea by isoelectric focusing densitometric analysis.
In data set [7] the test system is Transthyretin (Homo sapiens), P02766 [V50M]. The experiment in a line: Stabilization of TTR V30M mutant tetramer in human plasma assessed as tetramer to total protein ratio preincubated overnight at 4 degC followed by further incubation at room temperature for 1 hr in presence of 4M urea by isoelectric focusing densitometric analysis.
In data set [8] the target is T1, Transthyretin. The data set is described as follows: Stabilization of recombinant human wild type TTR expressed in Escherichia coli BL21 (DE3) assessed as inhibition of amyloid beta formation by measuring turbidity at 0.5 to 2 times molar concentration preincubated for 30 mins followed by lowering pH from 7.2 to 4.4 measured after 72 hrs by microplate spectrophotometric method.

SMILES strings stand for the structures. The source made the active and inactive calls. The calls are words filed in the database; no cut-off is given here.

For the molecule `Oc1c(Cl)cc(-c2cc(Cl)c(O)c(Cl)c2)cc1Cl`, in data set [1], the CC50 at 72 h came to 60 µM.
For the molecule `Cc1oc(/C=C/c2ccc(Cl)o2)cc1C(=O)O`, the Kd (in general, a measure of binding affinity in units of concentration) amounted to 0.0039 µM in data set [2] and 0.278 µM in data set [3]. The 50% inhibitory concentration (IC50) (usually the concentration that inhibits the measured activity by half) in data set [4] came to 2.49 µM. Moreover, the CC50 at 72 h in data set [1] stood at 225 µM.
As to `O=C(O)c1ccc2nc(-c3cc(Cl)cc(Cl)c3)oc2c1`, the inhibition result in data set [5] was “Active”. Besides, in data set [1], the CC50 at 72 h was 247 µM.
Consider `O=C(O)c1cc(-c2ccc(F)cc2F)cc(I)c1O`, for which the Ratio stood at 0.768 in data set [6] and 0.445 in data set [7]. Besides, the inhibition result in data set [5] is “Active”.
On to `Cc1c(C(=O)O)coc1/C=C/c1ccc(Cl)o1`, for which the Ratio stood at 0.961 in data set [6] and 0.481 in data set [7]. In addition, in data set [5], the inhibition result is “Active”. In addition, the CC50 at 72 h in data set [1] worked out at 181 µM.
As for `N[C@@H](Cc1cc(I)c(Oc2cc(I)c(O)c(I)c2)c(I)c1)C(=O)O`, the inhibition result in data set [8] is “Active”.
